The numbers were not newly measured in US10632137B2, “Composition containing ivermectin for exterminating Clavinema mariae infection on Sebastes schlegeli” (REPUBLIC OF KOREA (National Institute of Fisheries Science), priority 2017, dated 2020), which cites them from elsewhere.

For this series the following is noted: humans, after oral administration; cited from earlier work.

For the compound `CC[C@H](C)[C@H]1O[C@]2(C=C[C@@H]1C)C[C@@H]1C[C@@H](C/C=C(\C)[C@@H](O[C@H]3C[C@H](OC)[C@@H](O[C@H]4C[C@H](OC)[C@@H](O)[C@H](C)O4)[C@H](C)O3)[C@@H](C)/C=C/C=C3\CO[C@@H]4[C@H](O)C(C)=C[C@@H](C(=O)O1)[C@]34O)O2` [avermectin], the “Time to maximum plasma concentration” value is 4 h and the half-life entry is on record as “about 16 hours”.
